{"source": "paper PMC7926264", "about": "(Clinical cancer research : an official journal of the …, 2020)", "key": {"[1]": {"system": "H661 cells (HER4 overexpression)", "test": "cells", "format": "cell-based", "conditions": "Homo sapiens, NCI-H661, 72 h, read-out: IC50 proliferation"}, "[2]": {"system": "CUTO14 cells (EGFR exon 20 insertion p.A767_V769dupASV)", "test": "cells", "conditions": "Homo sapiens, CUTO14, 72 h, read-out: IC50 proliferation"}, "[3]": {"system": "EGFR phosphorylation (pEGFR) in CUTO14, CUTO17, and CUTO18"}, "[4]": {"system": "H1781 cells (HER2 ex20ins)", "test": "cells", "format": "cell-based", "conditions": "Homo sapiens, NCI-H1781, 72 h, read-out: IC50 proliferation"}, "[5]": {"system": "CUTO17 cells (EGFR exon 20 insertion p.N771_773dupNPH)", "test": "cells", "conditions": "Homo sapiens, CUTO17, 72 h, read-out: IC50 proliferation"}, "Calu-3 cells (HER2 amp)": {"system": "Calu-3 cells (HER2 amp)", "test": "cells", "format": "cell-based", "conditions": "Homo sapiens, Calu-3, 72 h, read-out: IC50 proliferation"}, "[6]": {"system": "CUTO18 cells (EGFR exon 20 insertion p.S768_D770dupSVD)", "test": "cells", "conditions": "Homo sapiens, 72 h, read-out: IC50 proliferation"}, "H2170 cells (HER2 amp)": {"system": "H2170 cells (HER2 amp)", "test": "cells", "format": "cell-based", "conditions": "Homo sapiens, NCI-H2170, 72 h, read-out: IC50 proliferation"}, "[7]": {"test": "Human plasma protein binding", "format": "in vitro ADME"}, "[8]": {"test": "Clinical plasma pharmacokinetics of afatinib", "format": "in vivo", "conditions": "human, po, 40 mg"}, "[9]": {"test": "Afatinib plasma pharmacokinetics and human equivalent dose in nude mice", "format": "in vivo"}, "[10]": {"system": "MDA-MB-175vIII cells (DOC4-NRG1 fusion)", "test": "cells", "format": "cell-based", "conditions": "Homo sapiens, 72 h, read-out: IC50 proliferation"}, "[11]": {"test": "Mouse plasma protein binding", "format": "in vitro ADME"}, "[12]": {"conditions": "cited from earlier work"}}, "data": [{"smiles": "C=CC(=O)Nc1cc(Nc2nccc(-c3cn(C)c4ccccc34)n2)c(OC)cc1N(C)CCN(C)C", "note": "[Osimertinib]", "values": [{"measurement": "IC50", "setting": "[1]", "result": "4518 ± 2", "unit": "nM"}, {"measurement": "IC50", "setting": "[2]", "result": 303, "unit": "nM"}, {"measurement": "inhibition of EGFR phosphorylation (pEGFR)", "setting": "[3]", "result": "showed inhibition at higher concentrations"}, {"measurement": "IC50", "setting": "[4]", "result": 406, "unit": "nM"}, {"measurement": "IC50", "setting": "[5]", "result": "426 ± 21.5", "unit": "nM"}, {"measurement": "IC50", "setting": "Calu-3 cells (HER2 amp)", "result": "188 ± 35.2", "unit": "nM"}, {"measurement": "IC50", "setting": "[6]", "result": "647 ± 6.7", "unit": "nM"}, {"measurement": "IC50", "setting": "H2170 cells (HER2 amp)", "result": "113 ± 4.4", "unit": "nM"}]}, {"smiles": "CN(C)C/C=C/C(=O)Nc1cc2c(Nc3ccc(F)c(Cl)c3)ncnc2cc1O[C@H]1CCOC1", "note": "[Afatinib]", "values": [{"measurement": "fraction unbound", "setting": "[7]", "result": 0.0821}, {"measurement": "AUC", "setting": "[8]", "result": 27, "unit": "ng·h/mL"}, {"measurement": "IC50", "setting": "[4]", "result": 66, "unit": "nM"}, {"measurement": "human equivalent dose (HED) in nude mice", "setting": "[9]; extrapolation by linear regression to total AUC of 468 ng*hr/mL", "result": 6, "unit": "mg/kg"}, {"measurement": "plasma AUCtotal required in mice to replicate human AUCfree", "setting": "[9]; mice", "result": 468, "unit": "ng·h/mL"}, {"measurement": "IC50", "setting": "Calu-3 cells (HER2 amp)", "result": "31 ± 11.4", "unit": "nM"}, {"measurement": "IC50", "setting": "[10]", "result": "1.2 ± 3.1", "unit": "nM"}, {"measurement": "fraction unbound", "setting": "[11]", "result": 0.0577}, {"measurement": "IC50", "setting": "H2170 cells (HER2 amp)", "result": "11 ± 2.9", "unit": "nM"}, {"measurement": "Cmax in patients at steady state", "setting": "[12]; 40mg PO daily", "result": 38, "unit": "ng/mL"}, {"measurement": "plasma AUCtotal", "setting": "[12]; human, 40 mg PO once daily", "result": 324, "unit": "ng·h/mL"}, {"measurement": "Cmax", "setting": "[12]; read-out: Cmax in patients at steady state, 40mg PO daily", "result": 78, "unit": "nM"}]}]}
